The text below walks through data of patent US20240041042A1, “1-(PYRIDYL)-5-AZINYLPYRAZOLE DERIVATIVES, AND THEIR USE FOR CONTROL OF UNDESIRED PLANT GROWTH” (Bayer Aktiengesellschaft, priority 2020, published 2024).

Like-named read-outs stand apart in the source and are kept apart here.

Holding throughout (type): in vivo
One series concerns Viola tricolor (VIOTR). Description: Pre-emergence herbicidal action against VIOTR. The conditions noted are these: 320 g/ha, Viola tricolor. The procedure, abridged: (§1)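 Pre-emergence soil-surface spray of compound, formulated as wettable powder or emulsion concentrate, in aqueous suspension or emulsion with 0.5% additive (600 l/ha; rate 320 g/ha or less). Activity rated visually after roughly 3 weeks in the greenhouse as a percentage of untreated controls, 0% meaning no difference.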

Series [1] deals with Amaranthus retroflexus (AMARE). Description: Post-emergence herbicidal action against AMARE. The procedure, abridged: (§2)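 Greenhouse plants sprayed at the one-leaf stage, 2–3 weeks after sowing, with WP or EC formulations plus 0.5% additive at 600 l/ha water. Activity rated visually after about 3 weeks versus untreated controls (100% = dead, 0% = like control), at 320 g/ha or lower.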

Series [2] has as its system Zea mays (ZEAMX). The conditions noted are these: crop plant compatibility, effect vs untreated controls. The procedure, abridged: (§3)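 One-leaf-stage crops (2–3 wk post-sowing, sandy loam, greenhouse) sprayed on green parts; 0.5% additive, 600 l/ha water. Rated by eye ~3 wk later, % vs untreated; suffixes a/b/c mark different dosages.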
Series [3] concerns Oryza sativa (ORYSA). The following applies: crop plant compatibility. The procedure, abridged: as §3
Series [4] relates to Triticum aestivum (TRZAS). The conditions noted are these: crop plant compatibility, effect vs untreated controls. The procedure, abridged: as §3
The test system of series [5] is Amaranthus retroflexus (AMARE). The series is described as follows: Pre-emergence herbicidal action against AMARE. The following applies: 320 g/ha, visual scoring after about 3 weeks vs untreated controls. The procedure, abridged:
as §1

The test system of series [6] is Zea mays (ZEAMX). The following applies: pre-emergence, crop plant compatibility, in comparison to untreated controls. The procedure, abridged: (§4)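 Scoring: visual, % of untreated control, about 3 weeks after a pre-emergence application to the soil surface. Application used WP or EC formulations diluted in water with 0.5% additive at 600 l/ha; dosage levels are marked by suffixes a, b and c.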

Series [7] concerns Oryza sativa (ORYSA). The following applies: pre-emergence, crop plant compatibility, in comparison to untreated controls. The procedure, abridged:
as §4

The test system of the next series is Glycine max (GLXMA). The following applies: pre-emergence, 80 g/ha, crop plant compatibility, in comparison to untreated controls. The procedure, abridged:
as §4

The subject of series [8] is Triticum aestivum (TRZAS). The conditions noted are these: pre-emergence, crop plant compatibility, in comparison to untreated controls. The procedure, abridged:
as §4

Series [9] concerns Alopecurus myosuroides (ALOMY). The series is described as follows: Pre-emergence herbicidal action against ALOMY. The following applies: 320 g/ha; scored visually after about 3 weeks; 100% = plants have died. The procedure, abridged: as §1
Series [10] deals with Abutilon theophrasti (ABUTH). The series is described as follows: Post-emergence herbicidal action against ABUTH. The following applies: 80 g/ha, visual rating about 3 weeks after treatment vs untreated controls (100% = plants have died, 0% = like control plants). The procedure, abridged: as §2
For another series, the system named is Setaria viridis (SETVI). The series is described as follows: Pre-emergence herbicidal action against SETVI. The conditions noted are these: dosage 320 g/ha. The procedure, abridged: as §1
Series [11] concerns Polygonum convolvulus (POLCO). The series is described as follows: Post-emergence herbicidal action against POLCO. The conditions noted are these: dosage 320 g/ha. The procedure, abridged:
as §2

The next series deals with Avena fatua (AVEFA). Description: Post-emergence herbicidal action against AVEFA. The following applies: 320 g/ha, visual rating about 3 weeks after treatment. The procedure, abridged:
as §2

In series [12] the test system is Echinochloa crus-galli (ECHCG). Description: Post-emergence herbicidal action against ECHCG. The conditions noted are these: dosage 320 g/ha. The procedure, abridged:
as §2

The test system of series [13] is Abutilon theophrasti (ABUTH). Description: Pre-emergence herbicidal action against ABUTH. The following applies: Dosage column 320 g/ha (title prints 3200 g/ha); scored visually after about 3 weeks; 100% = plants have died. The procedure, abridged: as §1
In the next series the test system is Lolium rigidum (LOLRI). The series is described as follows: Pre-emergence herbicidal action against LOLRI. The conditions noted are these: dosage 320 g/ha. The procedure, abridged: as §1
Setting [14] is: 320 g/ha, visual rating about 3 weeks after treatment.
Setting [15] is: 80 g/ha, effect in comparison to untreated controls.
The mark [16] stands for this setting: 320 g/ha, effect in comparison to untreated controls.
Where [17] appears, read: 80 g/ha, visual rating about 3 weeks after treatment vs untreated controls (100% = plants have died, 0% = like control plants).

Regarding `O=C(O)COc1nn(-c2ccncc2)c(-c2ccc(F)nc2)c1Br` [III-09], the “Pre-emergence action against VIOTR in %” value in the series with Viola tricolor (VIOTR) is 80%. Also, the “Post-emergence action against AMARE in %” value in series [1] (setting [14]) is on record as 80%. In addition, the “Post-emergence action against ZEAMX in %” value with Zea mays (ZEAMX) [2] (80 g/ha) and with Zea mays (ZEAMX) [2] (320 g/ha) was 10% each time. In addition, the “Post-emergence action against ORYSA in %” value in the series on Oryza sativa (ORYSA) [3] (setting [15]) and in the series on Oryza sativa (ORYSA) [3] (setting [16]) was 0% in each case. The “Post-emergence action against TRZAS in %” value in [4] (80 g/ha) and in [4] (320 g/ha) was 0% throughout. The “Pre-emergence action against AMARE in %” value in series [5] is reported as 80%. The “Pre-emergence action against ZEAMX in %” value in the series on Zea mays (ZEAMX) [6] (80 g/ha) and in the series on Zea mays (ZEAMX) [6] (320 g/ha) was 0% throughout. The “Pre-emergence action against ORYSA in %” value with Oryza sativa (ORYSA) [7] (80 g/ha) and in the series on Oryza sativa (ORYSA) [7] (320 g/ha) was 0% in each case. In addition, the “Pre-emergence action against GLXMA in %” value with Glycine max (GLXMA) amounted to 20%. Also, the “Pre-emergence action against TRZAS in %” value in series [8] (80 g/ha) and in series [8] (320 g/ha) was 0% throughout.
With `CCOC(=O)COc1nn(-c2ccccn2)c(-c2ccc(F)nc2)c1C1CC1` [Example I-78], the “Pre-emergence action against VIOTR in %” value in the series with Viola tricolor (VIOTR) is reported as 80%. Besides, the “Pre-emergence action against ALOMY” value in [9] stood at 90%. The “Post-emergence action against ABUTH in %” value in [10] amounted to 80%. For the same compound, in series [1] (setting [17]), the “Post-emergence action against AMARE in %” value came to 80%. For the same compound, the “Post-emergence action against ORYSA in %” value came out at 0% with Oryza sativa (ORYSA) [3] (20 g/ha, effect vs untreated controls) and 20% with Oryza sativa (ORYSA) [3] (setting [15]). Moreover, the results for the “Post-emergence action against TRZAS in %” value in series [4] (20 g/ha) and in series [4] (80 g/ha) were 0% and 20%, respectively. For the same compound, the “Pre-emergence action against SETVI in %” value in the series on Setaria viridis (SETVI) was 80%. In addition, the “Pre-emergence action against ZEAMX in %” value in the series on Zea mays (ZEAMX) [6] (80 g/ha) and with Zea mays (ZEAMX) [6] (320 g/ha) was 0% throughout. Also, the “Pre-emergence action against ORYSA in %” value with Oryza sativa (ORYSA) [7] (80 g/ha) and in the series on Oryza sativa (ORYSA) [7] (320 g/ha) was 0% in each case. Also, the “Pre-emergence action against GLXMA in %” value in the series with Glycine max (GLXMA) came to 0%. The “Pre-emergence action against TRZAS in %” value in [8] (80 g/ha) is recorded as 0%.
As to `O=C(COc1nn(-c2ccccn2)c(-c2ccc(F)nc2)c1Br)NS(=O)(=O)CC(F)(F)F` [Example I-60], the “Post-emergence action against POLCO in %” value in [11] is 80%. Moreover, the “Post-emergence action against AVEFA in %” value with Avena fatua (AVEFA) amounted to 90%. Also, the “Pre-emergence action against VIOTR in %” value in the series on Viola tricolor (VIOTR) was 80%. For the same compound, the “Post-emergence action against ECHCG in %” value in series [12] was 80%. For the same compound, the “Post-emergence action against AMARE in %” value in series [1] (setting [17]) and in [1] (setting [14]) was 80% each time. The “Post-emergence action against ORYSA in %” value in the series on Oryza sativa (ORYSA) [3] (setting [15]) and in the series on Oryza sativa (ORYSA) [3] (setting [16]) was 0% in each case. In addition, in series [13], the “Pre-emergence action against ABUTH” value turned out to be 80%. Besides, the “Pre-emergence action against AMARE in %” value in [5] was 90%. For the same compound, in the series on Lolium rigidum (LOLRI), the “Pre-emergence action against LOLRI in %” value was found to be 80%. For the same compound, the “Pre-emergence action against SETVI in %” value in the series with Setaria viridis (SETVI) is recorded as 80%. Also, the “Pre-emergence action against ZEAMX in %” value with Zea mays (ZEAMX) [6] (80 g/ha) was determined as 0%. Further, in the series on Oryza sativa (ORYSA) [7] (80 g/ha), the “Pre-emergence action against ORYSA in %” value is listed as 0%. Moreover, the “Pre-emergence action against GLXMA in %” value in the series on Glycine max (GLXMA) was 20%. The “Pre-emergence action against TRZAS in %” value in series [8] (80 g/ha) stood at 0%.
